From ChEMBL document CHEMBL6114940, “Exploring the pharmaceutical potential of ammonium organotrifluoroborate functional group: Comprehensive chemical, metabolic, and plasma stability evaluation” (Eur J Med Chem, 2024)

Experiments:
[1] = Stability of compound in 0.5 M NaOH assessed as 4-(boronomethyl)-4-(2-(2-(2-(((2R,3R,4S,5S,6R)-3,4,5-trihydroxy-6-(hydroxymethyl)tetrahydro-2H-pyran-2-yl)oxy)ethoxy)ethoxy)ethyl)morpholin-4-ium formation incubated for 72 hrs by LC-MS analysis; type: physicochemical
[2] = Stability of compound in 0.9 % saline solution assessed as 4-(boronomethyl)-4-(2-(2-(2-(((2R,3R,4S,5S,6R)-3,4,5-trihydroxy-6-(hydroxymethyl)tetrahydro-2H-pyran-2-yl)oxy)ethoxy)ethoxy)ethyl)morpholin-4-ium formation incubated for 72 hrs by LC-MS analysis; type: physicochemical; details: buffer
[3] = Stability of compound in 50 mM Tris-HCL buffer at pH 7.4 assessed as solvolysis constant (K) incubated for 72 hrs by LC-MS analysis; type: physicochemical; details: pH 7.4, 72 h
[4] = Stability of compound in 50 mM Tris-HCL buffer at pH 7.4 assessed as half life incubated for 72 hrs by LC-MS analysis; type: physicochemical
[5] = Stability of compound in 0.9 % saline solution assessed as half life incubated for 72 hrs by LC-MS analysis; type: physicochemical
[6] = Stability of compound in 0.05 M HCL assessed as 4-(boronomethyl)-4-(2-(2-(2-(((2R,3R,4S,5S,6R)-3,4,5-trihydroxy-6-(hydroxymethyl)tetrahydro-2H-pyran-2-yl)oxy)ethoxy)ethoxy)ethyl)morpholin-4-ium formation incubated for 72 hrs by LC-MS analysis; type: physicochemical; details: buffer
[7] = Stability of compound in 50 mM Tris-HCL buffer at pH 7.4 assessed as 4-(boronomethyl)-4-(2-(2-(2-(((2R,3R,4S,5S,6R)-3,4,5-trihydroxy-6-(hydroxymethyl)tetrahydro-2H-pyran-2-yl)oxy)ethoxy)ethoxy)ethyl)morpholin4ium formation incubated for 72 hrs by LC-MS analysis; type: physicochemical; details: pH 7.4, 72 h
[8] = Stability of compound in 0.05 M HCL assessed as half life incubated for 72 hrs by LC-MS analysis; type: physicochemical
[9] = Stability of compound in 0.5 M NaOH assessed as 4-methyl-4-(2-(2-(2-(((2R,3R,4S,5S,6R)-3,4,5-trihydroxy-6-(hydroxymethyl)tetrahydro-2H-pyran-2-yl)oxy)ethoxy)ethoxy)ethyl)morpholin-4-ium formation incubated for 72 hrs by LC-MS analysis; type: physicochemical
[10] = Metabolic stability in mouse liver microsomes assessed as drug hydrolysis by measuring 4-(boronomethyl)-4-(2-(2-(2-(((2R,3R,4S,5S,6R)-3,4,5-trihydroxy-6-(hydroxymethyl)tetrahydro-2H-pyran-2-yl)oxy)ethoxy)ethoxy)ethyl)morpholin-4-ium incubated for 1 hrs by LC-MS/MS analysis; type: ADME, Microsome
[11] = Stability of compound in 20 mM CH3COONH4 buffer at pH 5.8 assessed as half life incubated for 72 hrs by LC-MS analysis; type: physicochemical; details: 20 mM ammonium acetate (CH3COONH4) buffer
[12] = Stability of compound in 20 mM CH3COONH4 buffer at pH 5.8 assessed as solvolysis constant (K) incubated for 72 hrs by LC-MS analysis; type: physicochemical; set-up: unit not given beside the values; details: pH 5.8, 72 h
[13] = Stability of compound in 0.3 % H2O2 assessed as (2R,3S,4S,5R,6R)-2-(hydroxymethyl)-6-(2-(2-(2-morpholinoethoxy)ethoxy)ethoxy)tetrahydro-2H-pyran-3,4,5-triol formation incubated for 1 hrs by LC-MS analysis; type: physicochemical
[14] = Stability of compound in 0.05 M HCL assessed as solvolysis constant (K) incubated for 72 hrs by LC-MS analysis; type: physicochemical; set-up: unit not given beside the values; details: buffer
[15] = Stability in mouse plasma measured after 1 hr by LC-HRMS analysis; type: ADME, cell-free; details: read-out: Stability
[16] = Stability of compound in 20 mM CH3COONH4 buffer at pH 5.8 assessed as 4-(boronomethyl)-4-(2-(2-(2-(((2R,3R,4S,5S,6R)-3,4,5-trihydroxy-6-(hydroxymethyl)tetrahydro-2H-pyran-2-yl)oxy)ethoxy)ethoxy)ethyl)morpholin-4-ium formation incubated for 72 hrs by LC-MS analysis; type: physicochemical; details: pH 5.8, 72 h
[17] = Stability of compound in 0.5 M NaOH assessed as solvolysis constant (K) incubated for 72 hrs by LC-MS analysis; type: physicochemical; set-up: unit not given beside the values
[18] = Stability of compound in 0.9 % saline solution assessed as solvolysis constant (K) incubated for 72 hrs by LC-MS analysis; type: physicochemical; details: buffer
[19] = Stability of compound in 0.5 M NaOH assessed as half life incubated for 72 hrs by LC-MS analysis; type: physicochemical
[20] = Metabolic stability in mouse liver microsomes assessed as drug hydrolysis by measuring 1-(boronomethyl)-1-(2-(2-(2-(((2R,3R,4S,5S,6R)-3,4,5-trihydroxy-6-(hydroxymethyl)tetrahydro-2H-pyran-2-yl)oxy)ethoxy)ethoxy)ethyl)piperidin-1-ium formation incubated for 1 hrs by LC-MS/MS analysis; type: ADME, Microsome
[21] = Stability of compound in 0.5 M NaOH assessed as 1-methyl-1-(2-(2-(2-(((2R,3R,4S,5S,6R)-3,4,5-trihydroxy-6-(hydroxymethyl)tetrahydro-2H-pyran-2-yl)oxy)ethoxy)ethoxy)ethyl)piperidin-1-ium formation incubated for 72 hrs by LC-MS analysis; type: physicochemical
[22] = Stability of compound in 0.5 M NaOH assessed as 1-(boronomethyl)-1-(2-(2-(2-(((2R,3R,4S,5S,6R)-3,4,5-trihydroxy-6-(hydroxymethyl)tetrahydro-2H-pyran-2-yl)oxy)ethoxy)ethoxy)ethyl)piperidin-1-ium formation incubated for 72 hrs by LC-MS analysis; type: physicochemical
[23] = Stability of compound in 0.3 % H2O2 assessed as (2R,3S,4S,5R,6R)-2-(hydroxymethyl)-6-(2-(2-(2-(piperidin-1-yl)ethoxy)ethoxy)ethoxy)tetrahydro-2H-pyran-3,4,5-triol formation incubated for 1 hrs by LC-MS analysis; type: physicochemical
[24] = Stability of compound in 50 mM Tris-HCL buffer at pH 7.4 assessed as 1-(boronomethyl)-1-(2-(2-(2-(((2R,3R,4S,5S,6R)-3,4,5-trihydroxy-6-(hydroxymethyl)tetrahydro-2H-pyran-2-yl)oxy)ethoxy)ethoxy)ethyl)piperidin1ium formation incubated for 72 hrs by LC-MS analysis; type: physicochemical; details: pH 7.4, 72 h
[25] = Stability of compound in 20 mM CH3COONH4 buffer at pH 5.8 assessed as 1-(boronomethyl)-1-(2-(2-(2-(((2R,3R,4S,5S,6R)-3,4,5-trihydroxy-6-(hydroxymethyl)tetrahydro-2H-pyran-2-yl)oxy)ethoxy)ethoxy)ethyl)piperidin-1-ium formation incubated for 72 hrs by LC-MS analysis; type: physicochemical; details: pH 5.8, 72 h
[26] = Stability of compound in 0.9 % saline solution assessed as 1-(boronomethyl)-1-(2-(2-(2-(((2R,3R,4S,5S,6R)-3,4,5-trihydroxy-6-(hydroxymethyl)tetrahydro-2H-pyran-2-yl)oxy)ethoxy)ethoxy)ethyl)piperidin-1-ium formation incubated for 72 hrs by LC-MS analysis; type: physicochemical; details: buffer
[27] = Stability of compound in 0.05 M HCL assessed as 1-(boronomethyl)-1-(2-(2-(2-(((2R,3R,4S,5S,6R)-3,4,5-trihydroxy-6-(hydroxymethyl)tetrahydro-2H-pyran-2-yl)oxy)ethoxy)ethoxy)ethyl)piperidin-1-ium formation incubated for 72 hrs by LC-MS analysis; type: physicochemical; details: buffer
[28] = Stability of compound in 50 mM Tris-HCL buffer at pH 7.4 assessed as 1-borono-N,N-dimethyl-N-((1-(2-(2-(2-(((2R,3R,4S,5S,6R)-3,4,5-trihydroxy-6-(hydroxymethyl)tetrahydro-2H-pyran-2-yl)oxy)ethoxy)ethoxy)ethyl)-1H-1,2,3-triazol-4-yl)methyl)methanaminium formation incubated for 72 hrs by LC-MS analysis; type: physicochemical; details: pH 7.4, 72 h
[29] = Stability of compound in 0.05 M HCL assessed as 1-borono-N,N-dimethyl-N-((1-(2-(2-(2-(((2R,3R,4S,5S,6R)-3,4,5-trihydroxy-6-(hydroxymethyl)tetrahydro-2H-pyran-2-yl)oxy)ethoxy)ethoxy)ethyl)-1H-1,2,3-triazol-4-yl)methyl)methanaminium formation incubated for 72 hrs by LC-MS analysis; type: physicochemical; details: buffer
[30] = Metabolic stability in mouse liver microsomes assessed as drug hydrolysis 1-borono-N,N-dimethyl-N-((1-(2-(2-(2-(((2R,3R,4S,5S,6R)-3,4,5-trihydroxy-6-(hydroxymethyl)tetrahydro-2H-pyran-2-yl)oxy)ethoxy)ethoxy)ethyl)-1H-1,2,3-triazol-4-yl)methyl)methanaminium formation incubated for 1 hrs by LC-MS/MS analysis; type: ADME, Microsome
[31] = Stability of compound in 0.5 M NaOH assessed as N,N,N-trimethyl-1-(1-(2-(2-(2-(((2R,3R,4S,5S,6R)-3,4,5-trihydroxy-6-(hydroxymethyl)tetrahydro-2H-pyran-2-yl)oxy)ethoxy)ethoxy)ethyl)-1H-1,2,3-triazol-4-yl)methanaminium formation incubated for 72 hrs by LC-MS analysis; type: physicochemical
[32] = Stability of compound in 20 mM CH3COONH4 buffer at pH 5.8 assessed as 1-borono-N,N-dimethyl-N-((1-(2-(2-(2-(((2R,3R,4S,5S,6R)-3,4,5-trihydroxy-6-(hydroxymethyl)tetrahydro-2H-pyran-2-yl)oxy)ethoxy)ethoxy)ethyl)-1H-1,2,3-triazol-4-yl)methyl)methanaminium formation incubated for 72 hrs by LC-MS analysis; type: physicochemical; details: pH 5.8, 72 h
[33] = Stability of compound in 0.9 % saline solution assessed as 1-borono-N,N-dimethyl-N-((1-(2-(2-(2-(((2R,3R,4S,5S,6R)-3,4,5-trihydroxy-6-(hydroxymethyl)tetrahydro-2H-pyran-2-yl)oxy)ethoxy)ethoxy)ethyl)-1H-1,2,3-triazol-4-yl)methyl)methanaminium formation incubated for 72 hrs by LC-MS analysis; type: physicochemical; details: buffer
[34] = Stability of compound in 0.3 % H2O2 assessed as (2R,3R,4S,5S,6R)-2-(2-(2-(2-(4-((dimethylamino)methyl)-1H-1,2,3-triazol-1-yl)ethoxy)ethoxy)ethoxy)-6-(hydroxymethyl)tetrahydro-2H-pyran-3,4,5-triol formation incubated for 1 hrs by LC-MS analysis; type: physicochemical
[35] = Stability of compound in 0.5 M NaOH assessed as 1-borono-N,N-dimethyl-N-((1-(2-(2-(2-(((2R,3R,4S,5S,6R)-3,4,5-trihydroxy-6-(hydroxymethyl)tetrahydro-2H-pyran-2-yl)oxy)ethoxy)ethoxy)ethyl)-1H-1,2,3-triazol-4-yl)methyl)methanaminium formation incubated for 72 hrs by LC-MS analysis; type: physicochemical

SMILES	K [3]	half-life [4] [h]	half-life [5] [h]	half-life [8] [h]	half-life [11] [h]	K [12]	K [14]	remaining at 1 h [15] [%]	K [17]	K [18]	half-life [19] [h]	other results
OC[C@H]1O[C@@H](OCCOCCOCC[N+]2(C[B-](F)(F)F)CCOCC2)[C@H](O)[C@@H](O)[C@@H]1O	0.068	10.1	5.11	0.301	32.7	0.021	2.302	2.73	0.061	0.136	11.3	Stability [1]: Stable; Stability [2]: Stable; Stability [6]: Stable; Stability [7]: Stable; Stability [9]: Stable; Drug metabolism [10]: metabolite_detected; Stability [13]: Stable; Stability [16]: Stable
OC[C@H]1O[C@@H](OCCOCCOCC[N+]2(C[B-](F)(F)F)CCCCC2)[C@H](O)[C@@H](O)[C@@H]1O	0.146	4.76	1.81	0.108	8.82	0.078	6.439	14.1	0.14	0.383	4.95	Drug metabolism [20]: metabolite_detected; Stability [21]: Stable; Stability [22]: Stable; Stability [23]: Stable; Stability [24]: Stable; Stability [25]: Stable; Stability [26]: Stable; Stability [27]: Stable
C[N+](C)(Cc1cn(CCOCCOCCO[C@@H]2O[C@H](CO)[C@@H](O)[C@H](O)[C@H]2O)nn1)C[B-](F)(F)F	0.005	≥ 58	38.4	1.42	≥ 15.7	0.003	0.489	1.2	0.019	0.018	36	Stability [28]: Stable; Stability [29]: Stable; Drug metabolism [30]: metabolite_detected; Stability [31]: Stable; Stability [32]: Stable; Stability [33]: Stable; Stability [34]: Stable; Stability [35]: Stable
